Data taken from patent US10183021B2, “sGC stimulators” (Ironwood Pharmaceuticals, Inc., priority 2013, dated 2019).
Like-named read-outs stand apart in the source and are kept apart here.

Columns and labels:
Sprague-Dawley rats = experiment: Blood pressure change in Sprague-Dawley rats (Example 4); assay type: in vivo, rat; conditions: conscious male Sprague-Dawley rats, PO, 10 mg/kg
Protocol: Male rats (250-350 g body weight, supplied by Harlan Laboratories) were anesthetized with ketamine/xylazine and a heparinized saline fluid filled catheter implanted into the right femoral artery. The catheter was exteriorized between the scapula, capped, and the animal allowed to recover for at least 7 days post surgery prior to any compound testing. Prior to testing animals were maintained on normal diet, with free access to drinking water, under a 12 hour light-dark cycle.
On the day of experimentation, under inhaled isoflurane anesthesia, the catheter was uncapped and connected to a tether (Instech Labs) and pressure transducer (Harvard Apparatus). Blood pressure and heart rate were subsequently captured and analyzed with a dedicated data capture system (PowerLab, ADInstruments). Data sampling rates were set at 1 cycle per second. Once connected, each rat was allowed to recover from anesthesia and baseline blood pressure and heart rate levels were established in these conscious, freely-moving animals. Once baseline was established either vehicle (0.5% methylcellulose or 100% PEG400) or test article was administered orally (PO, 10 mg/kg) and the effects on blood pressure and heart rate monitored for up to 24 hours.
Data are reported as hourly averages and changes in blood pressure are calculated from subtracting individual baseline on an hourly basis.

[1] = target: T1, soluble guanylate cyclase (sGC) (Homo sapiens (Human), UniProt Q02108+Q02153); experiment: sGC-HEK-cGMP assay with SNP incubation, LC/MS detection (Example 2A); assay type: cell-based
In short: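 HEK293 cells with endogenous sGC were pretreated 15 min at 37 °C with 0.5 mM IBMX, then exposed 10 min at 37 °C to compound (added from 0.0001–30 μM solutions) plus SNP (from 10 μM solution). After 0.1 M HCl lysis, cGMP was quantified by LC/MS against a standard curve.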

[2] = target: T1, soluble guanylate cyclase (sGC); experiment: sGC-HEK-cGMP assay, new protocol with DETA-NONOate, LC/MS detection (Example 2C); assay type: cell-based
[3] = HEK293 cells, 10 μM SNP, LC/MS detection, 100% = BAY 41-2272 at 10 μM, read-out: HEK assay Emax - unconstrained (%)
[4] = HEK293 cells, 10 μM SNP, LC/MS detection, top of curve not fitted to 100%, read-out: HEK assay EC50 - unconstrained
[5] = read-out: Absolute EC50 (uM) - binned

T1 sequence (Q02153 whole entry): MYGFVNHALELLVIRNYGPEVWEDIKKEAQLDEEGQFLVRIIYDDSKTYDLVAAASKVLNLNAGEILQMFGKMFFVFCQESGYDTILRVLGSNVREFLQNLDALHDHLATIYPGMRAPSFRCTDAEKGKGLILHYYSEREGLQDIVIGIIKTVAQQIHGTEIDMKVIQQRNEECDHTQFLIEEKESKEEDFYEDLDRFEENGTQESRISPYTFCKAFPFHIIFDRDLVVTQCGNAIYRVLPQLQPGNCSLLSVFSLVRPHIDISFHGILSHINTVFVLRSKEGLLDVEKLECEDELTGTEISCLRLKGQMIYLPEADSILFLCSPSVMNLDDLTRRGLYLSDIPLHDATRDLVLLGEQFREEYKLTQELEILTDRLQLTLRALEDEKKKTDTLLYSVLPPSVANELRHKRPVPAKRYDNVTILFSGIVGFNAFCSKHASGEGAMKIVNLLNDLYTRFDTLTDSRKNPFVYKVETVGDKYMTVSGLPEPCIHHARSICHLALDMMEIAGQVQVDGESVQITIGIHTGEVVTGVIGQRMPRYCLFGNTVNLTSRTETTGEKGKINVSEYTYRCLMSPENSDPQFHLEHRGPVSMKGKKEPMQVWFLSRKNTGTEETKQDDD
T1 sequence (Q02108 whole entry): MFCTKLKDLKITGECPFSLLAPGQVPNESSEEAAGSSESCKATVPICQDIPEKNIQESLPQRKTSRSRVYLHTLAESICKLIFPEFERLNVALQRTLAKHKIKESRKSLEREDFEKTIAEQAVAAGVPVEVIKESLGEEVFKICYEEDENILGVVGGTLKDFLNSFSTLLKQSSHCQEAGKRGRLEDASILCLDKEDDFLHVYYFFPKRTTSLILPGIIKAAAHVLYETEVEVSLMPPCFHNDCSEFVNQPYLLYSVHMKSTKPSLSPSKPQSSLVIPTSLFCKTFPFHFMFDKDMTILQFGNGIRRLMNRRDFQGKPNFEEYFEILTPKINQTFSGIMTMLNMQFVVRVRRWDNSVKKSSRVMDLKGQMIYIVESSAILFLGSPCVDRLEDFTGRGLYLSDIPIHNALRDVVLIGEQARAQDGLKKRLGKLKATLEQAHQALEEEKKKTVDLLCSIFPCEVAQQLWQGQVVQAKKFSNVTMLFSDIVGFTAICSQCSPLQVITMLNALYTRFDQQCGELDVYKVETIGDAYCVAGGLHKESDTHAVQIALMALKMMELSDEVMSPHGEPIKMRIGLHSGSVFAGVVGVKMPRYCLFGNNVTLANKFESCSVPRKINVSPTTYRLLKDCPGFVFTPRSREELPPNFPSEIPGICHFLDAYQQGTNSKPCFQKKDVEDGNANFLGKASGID

Row | SMILES | Rat Mean Arterial Pressure peak change from baseline at 10 mpk (Sprague-Dawley rats) | Emax [1, 3] [%] | EC50 [1, 4] [nM] | EC50 [2, 5] [µM] | other results
1 | C[C@H]1CCCN(c2nc(-c3cc(-c4ccon4)n(Cc4ccccc4F)n3)ncc2F)[C@H]1C(=O)O (racemic) [Compound I-161] | B (B = −20 ≤ peak change from baseline at 10 mpk ≤ −10) | – | – | – | –
2 | CC(C)[C@@H](C(=O)O)N(C)c1nc(-c2cc(-c3ccon3)n(Cc3ccccc3F)n2)ncc1F [Compound I-89] | C (C = peak change from baseline at 10 mpk < −20) | 60 to 80 | 1 to 100 | < 0.1 | –
3 | O=C(O)[C@H]1c2ccccc2CCN1c1nc(-c2cc(-c3ccon3)n(Cc3ccccc3F)n2)ncc1F [Compound I-121] | A (A = −10 < peak change from baseline at 10 mpk < 0) | 60 to 80 | 100 to 500 | – | –
4 | CC1(C(=O)O)CCN(c2nc(-c3cc(-c4ccon4)n(Cc4ccccc4F)n3)ncc2F)CC1 [Compound I-124] | B (B = −20 ≤ peak change from baseline at 10 mpk ≤ −10) | 60 to 80 | 1 to 100 | – | –
5 | CN(c1nc(-c2cc(-c3ccon3)n(Cc3ccccc3F)n2)ncc1F)C(C(=O)O)c1ccccc1 (stereo not shown) [Compound I-142] | A (A = −10 < peak change from baseline at 10 mpk < 0) | 80 to 100 | 1 to 100 | – | –
6 | CC1(C(=O)O)CCN(c2nc(-c3cc(-c4ccon4)n(Cc4ccccc4F)n3)ncc2F)C1 (stereo not shown) [Compound I-143] | B (B = −20 ≤ peak change from baseline at 10 mpk ≤ −10) | 80 to 100 | 100 to 500 | – | –
7 | O=C(O)C1(C(F)(F)F)CCN(c2nc(-c3cc(-c4ccon4)n(Cc4ccccc4F)n3)ncc2F)C1 (stereo not shown) [Compound I-185] | A (A = −10 < peak change from baseline at 10 mpk < 0) | 100 to 120 | 1000 to 5000 | – | –
8 | CN(c1nc(-c2cc(-c3ccon3)n(Cc3ccccc3F)n2)ncc1F)[C@@H](Cc1ccccn1)C(=O)O [Compound I-257] | – | – | – | > 1 | EC50 ([1]; HEK293 cells, 10 μM SNP, LC/MS detection, top of curve fitted to 100%, read-out: HEK assay EC50 - constrained): > 10000 nM
9 | CC(C)[C@H](Nc1nc(-c2cc(-c3ccon3)n(Cc3ccccc3F)n2)ncc1F)C(=O)NS(=O)(=O)C1CC1 [Compound I-258] | – | 100 to 120 | 1000 to 5000 | 0.101 to 1 | –
10 | O=C(O)C1(O)CCN(c2nc(-c3cc(-c4ccon4)n(Cc4ccccc4F)n3)ncc2F)CC1 [Compound I-300] | – | 60 to 80 | 500 to 1000 | 0.101 to 1 | –
11 | C[C@H]1CCCN(c2nc(-c3cc(-c4ccon4)n(Cc4cccc(F)c4F)n3)ncc2F)[C@H]1C(=O)O [Compound I-305] | – | 0 to 10 | > 10000 | < 0.1 | –
12 | CN(c1nc(-c2cc(-c3ccon3)n(Cc3ccccc3F)n2)ncc1F)C12CC(C(=O)O)(C1)C2 [Compound I-307] | – | 100 to 120 | 1000 to 5000 | 0.101 to 1 | –
13 | OC[C@@H](O)CNc1nc(-c2cc(-c3ccon3)n(Cc3ccccc3F)n2)ncc1F [Compound I-313] | C (C = peak change from baseline at 10 mpk < −20) | – | – | < 0.1 | –
14 | OCC(CO)Nc1nc(-c2cc(-c3ccon3)n(Cc3ccccc3F)n2)ncc1F [Compound I-315] | C (C = peak change from baseline at 10 mpk < −20) | – | – | < 0.1 | –
15 | OC[C@H](O)CNc1nc(-c2cc(-c3ccon3)n(Cc3ccccc3F)n2)ncc1F [Compound I-316] | C (C = peak change from baseline at 10 mpk < −20) | – | – | < 0.1 | –
16 | OC(CNc1nc(-c2cc(-c3ccon3)n(Cc3ccccc3F)n2)ncc1F)(C(F)(F)F)C(F)(F)F [Compound I-324] | C (C = peak change from baseline at 10 mpk < −20) | – | – | 0.101 to 1 | –
17 | C[C@H]1CCCN(c2nc(-c3cc(-c4ccon4)n(Cc4ccccc4F)n3)ncc2F)[C@H]1C(=O)O [Compound I-329] | B (B = −20 ≤ peak change from baseline at 10 mpk ≤ −10) | – | – | – | –
18 | C[C@@H]1CCCN(c2nc(-c3cc(-c4ccon4)n(Cc4ccccc4F)n3)ncc2F)[C@@H]1C(=O)O [Compound I-330] | C (C = peak change from baseline at 10 mpk < −20) | – | – | – | –
19 | OC(CNc1nc(-c2cc(-c3ccon3)n(Cc3ccccc3F)n2)ncc1F)C(F)(F)F (stereo not shown) [Compound I-337] | C (C = peak change from baseline at 10 mpk < −20) | – | – | < 0.1 | –
20 | C[C@H]1CCCN(c2nc(-c3cc(-c4ccon4)n(Cc4ccccc4F)n3)ncc2F)[C@H]1c1nn[nH]n1 [Compound I-341] | A (A = −10 < peak change from baseline at 10 mpk < 0) | – | – | < 0.1 | –

Row | SMILES | Rat Mean Arterial Pressure peak change from baseline at 10 mpk (Sprague-Dawley rats) | Emax [1, 3] [%] | EC50 [1, 4] [nM] | EC50 [2, 5] [µM] | other results
21 | CN(CC1(C(=O)O)CCC1)c1nc(-c2cc(-c3ccon3)n(Cc3ccccc3F)n2)ncc1F [Compound I-342] | C (C = peak change from baseline at 10 mpk < −20) | – | – | < 0.1 | –
22 | CN(CC(=O)NS(=O)(=O)c1ccccc1)c1nc(-c2cc(-c3ccon3)n(Cc3ccccc3F)n2)ncc1F [Compound I-361] | – | 0 to 10 | 100 to 500 | < 0.1 | –
23 | Oc1noc2c1CCN(c1nc(-c3cc(-c4ccon4)n(Cc4ccccc4F)n3)ncc1F)C2 [Compound I-364] | – | – | – | – | EC50 [1]: 1 to 100 nM; Emax ([1]; HEK293, read-out: HEK assay Emax - unconstrained (%)): 80 to 100%; EC50 [2]: < 0.1 µM
24 | O=C(O)[C@@H]1[C@H]2CC[C@H](C2)N1c1nc(-c2cc(-c3ccon3)n(Cc3ccccc3F)n2)ncc1F [Compound I-365] | – | 80 to 100 | 1000 to 5000 | 0.101 to 1 | –
25 | NS(=O)(=O)C1CCN(c2nc(-c3cc(-c4ccon4)n(Cc4ccccc4F)n3)ncc2F)CC1 [Compound I-366] | – | 40 to 60 | 1 to 100 | < 0.1 | –
26 | CNS(=O)(=O)CCNc1nc(-c2cc(-c3ccon3)n(Cc3ccccc3F)n2)ncc1F [Compound I-367] | – | 60 to 80 | 1 to 100 | < 0.1 | –
27 | CN(CCS(=O)(=O)O)c1nc(-c2cc(-c3ccon3)n(Cc3ccccc3F)n2)ncc1F [Compound I-368] | – | 20 to 40 | 100 to 500 | > 1 | –
28 | O=C(O)[C@@H]1CCc2ccccc2[C@@H]1Nc1nc(-c2cc(-c3ccon3)n(Cc3ccccc3F)n2)ncc1F [Compound I-369] | – | 60 to 80 | 1 to 100 | < 0.1 | –
29 | O=C(O)[C@@H]1Cc2ccccc2[C@@H]1Nc1nc(-c2cc(-c3ccon3)n(Cc3ccccc3F)n2)ncc1F [Compound I-371] | – | 10 to 20 | > 10000 | < 0.1 | –
30 | CCOC(=O)c1csc(CN(C)c2nc(-c3cc(-c4ccon4)n(Cc4ccccc4F)n3)ncc2F)n1 [Compound I-372] | – | 60 to 80 | 100 to 500 | 0.101 to 1 | –
31 | CN(CCS(N)(=O)=O)c1nc(-c2cc(-c3ccon3)n(Cc3ccccc3F)n2)ncc1F [Compound I-374] | – | 100 to 120 | 100 to 500 | < 0.1 | –
32 | CN(Cc1nc(C(=O)O)co1)c1nc(-c2cc(-c3ccon3)n(Cc3ccccc3F)n2)ncc1F [Compound I-375] | – | 100 to 120 | 100 to 500 | > 1 | –
33 | CN(Cc1nc(C(=O)O)cn1C)c1nc(-c2cc(-c3ccon3)n(Cc3ccccc3F)n2)ncc1F [Compound I-376] | – | 100 to 120 | 5000 to 10000 | > 1 | –
34 | O=S(=O)(NC1CN(c2nc(-c3cc(-c4ccon4)n(Cc4ccccc4F)n3)ncc2F)C1)C(F)(F)F [Compound I-388] | B (B = −20 ≤ peak change from baseline at 10 mpk ≤ −10) | – | – | < 0.1 | –
35 | CC(O)(CNc1nc(-c2cc(-c3ccon3)n(Cc3ccccc3F)n2)ncc1F)C(N)=O (stereo not shown) [Compound I-389] | C (C = peak change from baseline at 10 mpk < −20) | – | – | < 0.1 | –
36 | O=C(Nc1ccnc(-c2cc(-c3ccon3)n(Cc3ccccc3F)n2)n1)C(O)(C(F)(F)F)C(F)(F)F [Compound I-400] | B (B = −20 ≤ peak change from baseline at 10 mpk ≤ −10) | – | – | 0.101 to 1 | –
37 | NC(=O)C(O)(CNc1nc(-c2cc(-c3ccon3)n(Cc3ccccc3F)n2)ncc1F)C(F)(F)F (stereo not shown) [Compound I-405] | C (C = peak change from baseline at 10 mpk < −20) | – | – | 0.101 to 1 | –
38 | O=C(O)[C@H]1[C@@H](C(F)(F)F)CCCN1c1nc(-c2cc(-c3ccon3)n(Cc3ccccc3F)n2)ncc1F [Compound I-454] | – | 20 to 40 | > 10000 | < 0.1 | –
39 | CC[C@H]1CCCN(c2nc(-c3cc(-c4ccon4)n(Cc4ccccc4F)n3)ncc2F)[C@H]1C(=O)O [Compound I-455] | – | 80 to 100 | 1 to 100 | < 0.1 | –
